Data on 12 substances can be found in patent US9133437B2, “Cell proliferation-promoting peptide and use thereof” (TOAGOSEI CO. LTD., priority 2009, dated 2015).

In this test the test system is Rat bone marrow stem cells (mesenchymal stem cells). The test is described as follows: Cell proliferation-promoting activity, WST-8 colorimetry (OD450). It is filed as cell-based. To be noted: WST-8, 2 hours; for OD450 day 4: four days from start of incubation; for OD450 day 4 / OD450 day 2: bFGF at 10 ng/mL; for OD450 Start: start of the incubation (day 0), 1×10^3 cells per well; for OD450 day 2: two days from start of incubation. On the procedure:
The cell proliferation-promoting peptides (Samples 1 to 8) obtained in Example 1 and the peptides composed of only a (A) part sequence (Samples 9 to 11) which had been prepared for comparison were evaluated, respectively, on the cell proliferation-promoting activity. Sample 12 was an experimental control where a commercial bFGF was used as the cell proliferation promoter. Sample 13 was an experimental control where no peptide was added (bFGF was not added, either). The evaluation assay is described in detail below. Each synthesized peptide sample was dissolved in PBS (phosphate buffered saline) to prepare a stock solution having a peptide concentration of 1 mM.
Rat bone marrow stem cells (mesenchymal stem cells) were used as the test cells. In particular, the test stem cells were subcultured in Dulbecco MEM (DMEM: a Gibco product) containing 10% fetal bovine serum (FBS: a Gibco product), 2 mM of L-glutamine, 50 unit/mL of penicillin, and 50 μg/mL of streptomycin. Passage 2 cells were used for the evaluation.
The test stem cells that had been pre-incubated overnight in the DMEM containing 10 ng/mL of bFGF were collected and seeded at 1×10^3 cells per well in a 96-well plate. The amount of the culture medium was […] per well.
Then, the stock solutions containing respective peptides of Samples 1 to 11 were added to some wells, one for each well. For comparison, a commercial bFGF (a PeproTech product) was added at a concentration of 10 ng/mL to some other wells (Sample 12). Similarly, yet some other wells were set up to not to contain any of the sample peptides or bFGF (Sample 13).
After a sample peptide or bFGF was added as described above, the 96-well plate was placed in a CO2 incubator and incubated standing at 37° C. and 5% CO2. Exchange of the culture medium was carried out every other day. The culture medium used for an exchange was the same as the culture medium used initially for the incubation (i.e., for the group containing a sample peptide or bFGF, the same sample peptide or bFGF was added to the exchanged culture medium).
During the course of this incubation assay, water-soluble tetrazolium salt (WST-8) was added to some wells as a staining reagent at the start of the incubation (day 0), when two days had passed from the start (day 2) and when four days had passed from the start (day 4). Incubated for 2 hours after the addition, the cell culture medium with the added staining reagent was collected. The level of cell proliferation was evaluated by colorimetry as optical density measured at 450 nm (OD450) based on reduction of the tetrazolium salt.
On the technique in general: Tetrazolium dyes change colour on reduction, which living cells bring about.

Where no end group is shown, it is not given here.

Regarding “KKRTLRKNDRKKR (KKRTLRKNDRKKR-NH2) [Sample 9, reference compound]”, the “OD450 day 4” value is 1.260, the “OD450 Start” value turned out to be 0.124 and the “OD450 day 2” value amounted to 0.648.
The matching figures for “KKRTLRKNDRKKR LLGNSSPRTQSPQNC (KKRTLRKNDRKKRLLGNSSPRTQSPQNC-NH2) [Sample 3]”: 2.289, 0.124 and 1.177.
The matching figures for “KKRTLRKNDRKKR TLKERCLQVVRSLVK (KKRTLRKNDRKKRTLKERCLQVVRSLVK) [Sample 4]”: 2.410, 0.124 and 1.357.
As for “Sample 12: experimental control: commercial bFGF (basic fibroblast growth factor, a PeproTech product) at 10 ng/mL”, the “OD450 day 4” value amounted to 1.977, the “OD450 Start” value is on record as 0.124 and the “OD450 day 2” value was 1.022.
The matching figures for “TLDGGDIINALCFS KKRTLRKNDRKKR (TLDGGDIINALCFSKKRTLRKNDRKKR-NH2) [Sample 2]”: 2.259, 0.124 and 1.133.
Regarding “TLKERCLQVVRSLVK KKRTLRKNDRKKR (TLKERCLQVVRSLVKKKRTLRKNDRKKR) [Sample 1]”, the “OD450 day 4” value was 2.369, the “OD450 Start” value is recorded as 0.124 and the “OD450 day 2” value turned out to be 1.264.
The matching figures for “WRRQARFK TLKERCLQVVRSLVK (WRRQARFKTLKERCLQVVRSLVK) [Sample 6]”: 2.365, 0.124 and 1.181.
The matching figures for “WRRQARFK [Sample 11, reference compound]”: 1.744, 0.124 and 0.799.
The matching figures for “YARAAARQARA (YARAAARQARA-NH2) [Sample 10, reference compound]”: 1.737, 0.124 and 0.770.
As for “YARAAARQARA SLQYLCRFVIRQYTR (YARAAARQARASLQYLCRFVIRQYTR-NH2) [Sample 8]”, the “OD450 day 4” value came out at 1.828, the “OD450 Start” value came out at 0.124 and the “OD450 day 2” value came to 0.856.
The matching figures for “YARAAARQARA TLKERCLQVVRSLVK (YARAAARQARATLKERCLQVVRSLVK) [Sample 5]”: 1.971, 0.124 and 0.926.
The matching figures for “YGRKKRRQRRRTLKERCLQVVRSLVK (YGRKKRRQRRRTLKERCLQVVRSLVK-NH2) [Sample 7]”: 2.279, 0.124 and 1.340.
